Results reported in US20210246120A1, “METHOD OF PREPARATION AND USE OF PHOSPHOINOSITIDE 3-KINASE INHIBITORS IN TREATING CANCER” (BIOMEDICAL RESEARCH FOUNDATION OF THE ACADEMY OF ATHENS …, priority 2018, published 2021).
Where two headings read alike, the source gives them in different places.

Assays:
[1] = target: T1, mutant PI3Kα H1047R protein (Homo sapiens, UniProt P42336, H1047R); assay: In vitro cell-free PI3Kα activity assay using PIP2 containing liposomes (H1047R mutant); type: biochemical; conditions: for Inhibition selectivity for mutant PI3Kα H1047R compared to wild-type PI3Kα: ratio of IC50 WT / H1047R; for IC50: logit-log plots, PIP2 liposomes
T1 construct: purchased Millipore
Protocol: PI3Kα activity assays on the identified lead compound and its analogs were performed using PIP2 containing liposomes (Gkeka et al., PLoS Comput Biol 10:e1003895 (2014)). Complexes of PIK3CA (WT or […])/PIK3R1 were obtained from Millipore. The assay was based on a protocol provided by Millipore, with modifications (Papafotika et al., in preparation) which will be further described below. In this assay, PIP3 molecules produced by PI3Kα compete with biotinylated PIP3 for binding with a recombinant GST-GRP1-PH domain (amino acids 263-380), which has been produced in bacteria, bound to glutathione coated 96-well plates. Quantitation of the competed amount of biotin-PIP3 is estimated by the peroxidase activity of streptavidin-HRP that binds to the plate and provides a measure for the activity of the protein. The compounds were preincubated with all the components of the assay mixture, except PIP2, for 10 min, at 25° C. PIP2 is added in the end of the preincubation period, thereby initiating the kinase reaction. IC50 values were calculated from dose-response curves using logit-log plots. All assays were carried out in at least three independent experiments and each concentration in triplicate. PIK-108 and wortmannin were used as controls (Gkeka et al., J Phys Chem B 119:1002-1016 (2015)).
To evaluate the in vitro activity of the compound having the formula (II) (PI3K-010), PI3Kα activity assays were performed using PIP2 containing liposomes (Gkeka et al PLOS Comp Biol 2014). In this assay, PIP3 molecules produced by PI3Kα compete with biotinylated PIP3 for binding to recombinant GST-GRP1-PH domain (amino acids 263-380), which has been produced in bacteria, bound to glutathione coated 96-well plates. Quantitation of the competed amount of biotin-PIP3 is estimated by the peroxidase activity of streptavidin-HRP that binds to the plate and provides a measure for the activity of the protein. The compounds were preincubated with all the components of the assay mixture, except PIP2, for 10 min, at 25° C. […]
(§1) To evaluate the in vitro activity of the compound having the formula (III) (PI3K-010), PI3Kα activity assays were performed using PIP2 containing liposomes (Gkeka et al PLOS Comp Biol 2014). […] Quantitation of the competed amount of biotin-PIP3 is estimated by the peroxidase activity of streptavidin-HRP that binds to the plate and provides a measure for the activity of the protein. […]
as §1, with “(IV) (PI3K-024),” for “(III) (PI3K-010),”

[2] = system: breast cancer in WAPCre/exon20 Pik3ca*/MMTV-Myc mouse; assay: Micro PET/CT imaging and Ki67 immunohistochemistry of breast tumors in WAPCre/exon20 Pik3ca*/MMTV-Myc mouse; type: in vivo
Source text: In order to test the in vivo activity of potential anticancer drugs, establishing a corresponding cancer animal model is required. To generate mouse tumors at chosen anatomical sites, a variant of a genetic scheme that is based on Cre/loxP recombination is often used. Depending on the tissue-specificity of the promoter driving Cre expression, corresponding tumors develop in progeny derived from matings between Cre-producer mice and Cre-responder partners carrying a dormant oncogenic transgene, which becomes functional after excision of an upstream-positioned floxed DNA segment that blocks its expression [see Politi et al. Oncogene 23:1558-1565 (2004); Klinakis et al. Proc Natl Acad Sci USA 106:2359-2364 (2009), Stratikopoulos et al. Cancer Cell 27:837-851 (2015)). To develop mouse strains carrying Pik3ca gain of function mutations (hereafter referred to as Pik3ca*), a knock-in gene targeting strategy was followed (Stratikopoulos et al. Cancer Cell 27:837-851 (2015)). Thus, either of the two hotspot mutations of the Pik3ca locus (in exon 20 or in exon 9) was targeted so that the mutated Pik3ca would be expressed from the endogenous locus and not from a transgene, thus, mimicking the expression found in human tumors. Activation of the exon 20 Pik3ca oncogenic mutation was achieved after mating the animals with WAPCre producers (WAP is a milk protein, the promoter of which is used for driving Cre expression, specifically in the mammary gland). Mammary tumors appeared in such animals after a very long latency of 490 days (median). […] These mice were used to test the efficacy of compounds discussed herein.
FIG. 6. Example of micro PET/CT imaging of WAPCre/exon20 Pik3ca*/MMTV-Myc mouse (compared with a negative wild-type control) at the beginning and end of treatment (one month) of breast cancer with the PI3K-010 compound.
PET/CT images of a WAPCre/exon20 Pik3ca*/MMTV-Myc mouse were acquired at the beginning and end of treatment ([…]) of breast cancer with the PI3K-010 compound (cf. FIG. 6). The compound was administered per os (by gavage) at 100 mg/Kg doses. […]

[3] = target: T2, wild type PI3Kα protein (Homo sapiens, UniProt P42336); assay: In vitro cell-free PI3Kα activity assay using PIP2 containing liposomes (wild type); type: biochemical
T2 construct: purchased Millipore
T2 sequence (P42336 whole entry): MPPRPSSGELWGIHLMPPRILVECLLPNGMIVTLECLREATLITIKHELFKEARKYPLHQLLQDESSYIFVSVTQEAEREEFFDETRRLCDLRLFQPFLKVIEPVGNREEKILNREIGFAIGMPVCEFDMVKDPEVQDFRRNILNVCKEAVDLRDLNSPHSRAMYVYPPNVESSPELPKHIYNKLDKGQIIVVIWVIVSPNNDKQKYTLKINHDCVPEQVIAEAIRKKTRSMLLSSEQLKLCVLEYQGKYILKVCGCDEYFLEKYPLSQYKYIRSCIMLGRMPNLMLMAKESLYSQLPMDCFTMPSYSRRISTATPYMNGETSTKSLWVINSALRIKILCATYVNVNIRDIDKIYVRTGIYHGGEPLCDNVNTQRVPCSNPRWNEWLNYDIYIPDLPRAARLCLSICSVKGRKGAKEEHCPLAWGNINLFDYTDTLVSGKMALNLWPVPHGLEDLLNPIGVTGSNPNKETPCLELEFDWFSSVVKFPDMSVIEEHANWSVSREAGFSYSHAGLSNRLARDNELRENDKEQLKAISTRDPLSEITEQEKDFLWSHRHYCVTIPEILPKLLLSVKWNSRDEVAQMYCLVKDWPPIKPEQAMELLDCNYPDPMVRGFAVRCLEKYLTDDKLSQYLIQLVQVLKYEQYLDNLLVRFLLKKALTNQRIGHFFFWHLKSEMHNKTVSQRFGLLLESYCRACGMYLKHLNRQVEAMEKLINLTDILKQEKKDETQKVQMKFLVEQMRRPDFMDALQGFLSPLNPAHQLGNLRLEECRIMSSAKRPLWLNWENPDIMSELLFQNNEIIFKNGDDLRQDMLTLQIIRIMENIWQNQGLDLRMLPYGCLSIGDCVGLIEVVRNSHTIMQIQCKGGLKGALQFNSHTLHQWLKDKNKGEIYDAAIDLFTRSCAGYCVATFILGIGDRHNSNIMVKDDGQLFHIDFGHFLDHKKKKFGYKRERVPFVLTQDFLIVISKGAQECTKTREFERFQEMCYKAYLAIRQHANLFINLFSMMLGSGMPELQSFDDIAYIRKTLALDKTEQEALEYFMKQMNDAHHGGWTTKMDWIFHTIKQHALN
T2 sequence (P27986 whole entry partner): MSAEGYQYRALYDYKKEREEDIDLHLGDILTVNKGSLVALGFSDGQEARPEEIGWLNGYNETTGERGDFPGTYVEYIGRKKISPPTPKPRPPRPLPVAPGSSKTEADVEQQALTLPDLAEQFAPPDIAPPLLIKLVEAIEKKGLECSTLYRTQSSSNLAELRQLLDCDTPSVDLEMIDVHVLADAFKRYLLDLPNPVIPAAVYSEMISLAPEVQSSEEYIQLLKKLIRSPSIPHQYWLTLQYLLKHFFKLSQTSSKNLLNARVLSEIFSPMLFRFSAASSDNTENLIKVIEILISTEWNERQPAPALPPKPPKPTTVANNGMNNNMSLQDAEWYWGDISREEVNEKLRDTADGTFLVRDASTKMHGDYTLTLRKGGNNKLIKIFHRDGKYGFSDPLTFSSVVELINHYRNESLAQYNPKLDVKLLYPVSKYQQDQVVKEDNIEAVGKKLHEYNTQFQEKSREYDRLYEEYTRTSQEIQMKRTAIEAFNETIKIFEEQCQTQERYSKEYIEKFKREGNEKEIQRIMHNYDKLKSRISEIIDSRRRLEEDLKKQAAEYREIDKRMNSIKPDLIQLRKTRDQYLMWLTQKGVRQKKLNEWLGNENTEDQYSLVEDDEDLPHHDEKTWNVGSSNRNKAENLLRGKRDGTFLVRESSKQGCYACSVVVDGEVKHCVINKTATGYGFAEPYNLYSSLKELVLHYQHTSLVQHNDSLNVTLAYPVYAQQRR

T1 sequence (P42336 whole entry H1047R): as the sequence (P42336 whole entry) above, with H1047R counted along it
T1 sequence (P27986 whole entry partner): as the sequence (P27986 whole entry partner) above

Compound	Inhibition selectivity for mutant PI3Kα H1047R compared to wild-type PI3Kα [1]	Proliferation index (Ki67 immunohistochemistry) after treatment ([2]; 100 mg/Kg per os by gavage, surgically removed breast tumors, controls 69.9+5.1%)	Uptake of 18F-FDG by remnants of breast cancer (PET/CT) ([2]; 100 mg/Kg per os, beginning vs end of treatment (two weeks))	Immunohistochemical analysis: tumor necrosis after treatment ([2]; 100 mg/Kg per os, in comparison with the controls)	IC50 ([3]; extrapolated, very low inhibition at the highest tested concentrations, read-out: IC50 for the WT PI3Kα, estimated by extrapolation)	IC50 ([1]; read-out: IC50 for the mutant H1047R PI3Kα)	IC50 ([3]; logit-log plots, 100 μM ATP, PIP2 liposomes, read-out: IC50 against WT PI3Kα)	IC50 ([1]; 100 μM ATP, read-out: IC50 against mutant H1047R PI3Kα)
c1cc(CSc2nc3ccccc3[nH]2)nc(CSc2nc3ccccc3[nH]2)c1 [PI3K-010, 2,6-bis(((1H-benzo[d]imidazol-2-yl)thio)methyl)pyridine]	11 fold	15.0+3.3%	diminished uptake	tumor necrosis	–	–	–	–
O=C(NCc1ccccc1)c1cccc(C(=O)NCc2ccccc2)n1 [PI3K-021, N^2,N^6-dibenzylpyridine-2,6-dicarboxamide]	> 100 fold	–	–	–	> 1000 µM	13.5 µM	–	–
O=C(Nc1cccc(O)c1)c1cccc(C(=O)Nc2cccc(O)c2)n1 [PI3K-024, N^2,N^6-bis(3-hydroxyphenyl)pyridine-2,6-dicarboxamide]	–	–	–	–	–	–	0.006 µM	0.064 µM
